Measured values reported in PubChem BioAssay AID248 (DTP/NCI, 2004).
Values joined by “and” are separate entries in the source; they are usually repeats but may differ in a detail not shown here. Equal values may be shown once. Toxic doses and inconclusive results are not listed. Cut-off read from the data, not from the text of the source: active = T/C of 150% or more; inactive = T/C below 125%.

Tested on: L1210 leukemia ip in BDF1 mice, survival T/C
Assay: NCI In Vivo Anticancer Drug Screen. Data for tumor model L1210 Leukemia (intraperitoneal) in B6D2F1 (BDF1) mice
Details: endpoint: mean survival time, higher = longer survival
Outline: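 Read-out is survival time, reported as the treated-group measurement over the vehicle-control measurement.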

[1] = dose: 100.0 mg/kg/injection, schedule: Q01DX001 (ip), vehicle: saline
[2] = dose: 200.0 mg/kg/injection, schedule: Q01DX001 (ip), vehicle: saline
[3] = dose: 400.0 mg/kg/injection, schedule: Q01DX001 (ip), vehicle: saline
[4] = dose: 50.0 mg/kg/injection, schedule: Q01DX001 (ip), vehicle: saline
[5] = dose: 100.0 mg/kg/injection, schedule: Q04DX003 (ip), vehicle: saline with Tween-80
[6] = dose: 200.0 mg/kg/injection, schedule: Q04DX003 (ip), vehicle: saline with Tween-80
[7] = dose: 400.0 mg/kg/injection, schedule: Q04DX003 (ip), vehicle: saline with Tween-80
[8] = dose: 100.0 mg/kg/injection, schedule: Q01DX001 (ip), vehicle: Klucel (hydroxypropylcellulose) (HPC)
[9] = dose: 200.0 mg/kg/injection, schedule: Q01DX001 (ip), vehicle: Klucel (hydroxypropylcellulose) (HPC)

Measured: T/C

NCc1cccc(NC(=O)COc2cccc(Cl)c2)c1
inactive: dose: 25.0 mg/kg/injection, schedule: Q04DX002 (ip), vehicle: Klucel (hydroxypropylcellulose) (HPC) 100 % of control | dose: 50.0 mg/kg/injection, schedule: Q04DX002 (ip), vehicle: Klucel (hydroxypropylcellulose) (HPC) 111 % of control | dose: 100.0 mg/kg/injection, schedule: Q04DX002 (ip), vehicle: Klucel (hydroxypropylcellulose) (HPC) 100 % of control

CCCN(CCC)[N+](=O)[O-]
inactive: dose: 100.0 mg/kg/injection, schedule: Q01DX001 (ip), vehicle: other 98 % of control | dose: 100.0 mg/kg/injection, schedule: Q04DX003 (ip), vehicle: other 104 % of control | dose: 200.0 mg/kg/injection, schedule: Q01DX001 (ip), vehicle: other 93 % of control | dose: 200.0 mg/kg/injection, schedule: Q04DX003 (ip), vehicle: other 101 % of control | dose: 400.0 mg/kg/injection, schedule: Q01DX001 (ip), vehicle: other 97 % of control | dose: 400.0 mg/kg/injection, schedule: Q04DX003 (ip), vehicle: other 98 % of control

Cc1nnc(NS(=O)(=O)c2ccc(N=Nc3ccc(O)c4ncccc34)cc2)s1
inactive: [1] 105 % of control | [2] 102 % of control | [3] 96 % of control

O=[N+]([O-])c1cccc(/C=[N+](\[O-])c2ccccc2)c1
inactive: [4] 100 % of control | [1] 96 % of control | [2] 100 % of control | [3] 102 % of control

O=[N+]([O-])C1C2CCC(C2)C1[N+](=O)[O-] (stereo not drawn)
inactive: dose: 75.0 mg/kg/injection, schedule: Q01DX001 (ip), vehicle: saline 91 % of control | dose: 150.0 mg/kg/injection, schedule: Q01DX001 (ip), vehicle: saline 100 % of control | dose: 300.0 mg/kg/injection, schedule: Q01DX001 (ip), vehicle: saline 87 % of control

CCOC(=O)c1cnc(SC)nc1N(CC)c1ccccc1
inactive: dose: 100.0 mg/kg/injection, schedule: Q01DX009 (ip), vehicle: gum acacia 105 % of control | dose: 100.0 mg/kg/injection, schedule: Q04DX003 (ip), vehicle: gum acacia 102 % of control | dose: 200.0 mg/kg/injection, schedule: Q01DX009 (ip), vehicle: gum acacia 100 % of control | dose: 200.0 mg/kg/injection, schedule: Q04DX003 (ip), vehicle: gum acacia 102 % of control | dose: 400.0 mg/kg/injection, schedule: Q01DX009 (ip), vehicle: gum acacia 102 % of control | dose: 400.0 mg/kg/injection, schedule: Q04DX003 (ip), vehicle: gum acacia 102 % of control

c1ccc2cc(Nc3ccc4ccccc4c3)ccc2c1
inactive: dose: 100.0 mg/kg/injection, schedule: Q01DX009 (ip), vehicle: saline with Tween-80 106 % of control | dose: 200.0 mg/kg/injection, schedule: Q01DX009 (ip), vehicle: saline with Tween-80 108 % of control | dose: 400.0 mg/kg/injection, schedule: Q01DX009 (ip), vehicle: saline with Tween-80 101 % of control

COC(=O)c1cc(C)n(C)c(=O)c1CNC(=O)c1ccccc1
inactive: dose: 100.0 mg/kg/injection, schedule: Q01DX009 (ip), vehicle: saline 97 % of control | dose: 100.0 mg/kg/injection, schedule: Q04DX003 (ip), vehicle: saline 107 % of control | dose: 200.0 mg/kg/injection, schedule: Q01DX009 (ip), vehicle: saline 96 % of control | dose: 200.0 mg/kg/injection, schedule: Q04DX003 (ip), vehicle: saline 97 % of control | dose: 400.0 mg/kg/injection, schedule: Q01DX009 (ip), vehicle: saline 97 % of control | dose: 400.0 mg/kg/injection, schedule: Q04DX003 (ip), vehicle: saline 91 % of control

NC(=O)NC(N)=S
inactive: [5] 99 % of control | [6] 103 % of control | [7] 103 % of control

CCNC(=O)OC1C=CS(=O)(=O)C1 (stereo not drawn)
inactive: dose: 100.0 mg/kg/injection, schedule: Q04DX002 (ip), vehicle: saline 106 % of control | dose: 200.0 mg/kg/injection, schedule: Q04DX002 (ip), vehicle: saline 92 % of control | dose: 400.0 mg/kg/injection, schedule: Q04DX002 (ip), vehicle: saline 106 % of control

COc1ccc(C(N)C(=O)O)cc1 (stereo not drawn)
inactive: [4] 94 % of control | dose: 75.0 mg/kg/injection, schedule: Q01DX009 (ip), vehicle: Klucel (hydroxypropylcellulose) (HPC) 110 % of control | [8] 96 % of control | [1] 94 % of control | dose: 150.0 mg/kg/injection, schedule: Q01DX009 (ip), vehicle: Klucel (hydroxypropylcellulose) (HPC) 113 % of control | [9] 97 % of control | [2] 96 % of control | dose: 300.0 mg/kg/injection, schedule: Q01DX009 (ip), vehicle: Klucel (hydroxypropylcellulose) (HPC) 101 % of control | dose: 400.0 mg/kg/injection, schedule: Q01DX001 (ip), vehicle: Klucel (hydroxypropylcellulose) (HPC) 92 % of control | [3] 96 % of control

O=C(OC1COC(OCc2ccccc2)C(OC(=O)c2ccccc2)C1OC(=O)c1ccccc1)c1ccccc1 (stereo not drawn)
inactive: dose: 25.0 mg/kg/injection, schedule: Q04DX003 (ip), vehicle: saline with Tween-80 94 % of control | [5] 93 % of control and 87 % of control

N#CSCCN1C(=O)C2C3CCC(O3)C2C1=O (stereo not drawn)
inactive: dose: 6.25 mg/kg/injection, schedule: Q04DX002 (ip), vehicle: saline with Tween-80 94 % of control | dose: 12.5 mg/kg/injection, schedule: Q04DX002 (ip), vehicle: saline with Tween-80 97 % of control

CCCCCCCCCCC(=O)O
inactive: [8] 105 % of control | [9] 105 % of control | dose: 300.0 mg/kg/injection, schedule: Q01DX001 (ip), vehicle: Klucel (hydroxypropylcellulose) (HPC) 101 % of control

NC(=O)OCCOCCOC(N)=O
inactive: [5] 98 % of control | [6] 98 % of control | [7] 101 % of control

CS(=O)(=O)OC/C(Br)=C/Br
inactive: dose: 100.0 mg/kg/injection, schedule: Q01DX001 (ip), vehicle: carboxymethylcellulose (CMC) 103 % of control | dose: 200.0 mg/kg/injection, schedule: Q01DX001 (ip), vehicle: carboxymethylcellulose (CMC) 101 % of control

O=C1OC(c2ccc(Cl)cc2)=N/C1=C\c1ccccc1
inactive: [5] 100 % of control | [6] 90 % of control | [7] 91 % of control

CC(C)(CO)C(O)C(=O)NCCCCC1CCCCC1 (stereo not drawn)
inactive: dose: 100.0 mg/kg/injection, schedule: Q04DX003 (ip), vehicle: Klucel (hydroxypropylcellulose) (HPC) 98 % of control | dose: 200.0 mg/kg/injection, schedule: Q04DX003 (ip), vehicle: Klucel (hydroxypropylcellulose) (HPC) 93 % of control | dose: 400.0 mg/kg/injection, schedule: Q04DX003 (ip), vehicle: Klucel (hydroxypropylcellulose) (HPC) 88 % of control
